Earlier results as cited in patent US5346701A, “Transmucosal delivery of macromolecular drugs” (TheraTech, Inc., priority 1993, dated 1994).
Blank lines part the entries; values can stand above or below the compound they belong to.

Experiments:
[1] = nasal membranes
platelets = conditions: in vitro
[2] = test system: delayed-typehypersensitivity
[3] = test system: vascular smooth muscle cells
[4] = test system: antithrombin III (AT III); conditions: clinically used heparin

Compound: C[C@H](CCC(=O)O)[C@H]1CC[C@H]2[C@@H]3[C@H](O)C[C@@H]4C[C@H](O)CC[C@]4(C)[C@H]3CC[C@]12C [chenodeoxycholate]
order of effectiveness as enhancer of insulin absorption [1]: deoxycholate<chenodeoxycholate<cholate<ursodeoxycholate

Compound: C[C@H](CCC(=O)O)[C@H]1CC[C@H]2[C@@H]3[C@@H](O)C[C@@H]4C[C@H](O)CC[C@]4(C)[C@H]3CC[C@]12C [ursodeoxycholate]
order of effectiveness as enhancer of insulin absorption [1]: deoxycholate<chenodeoxycholate<cholate<ursodeoxycholate

acceleration of rate of thrombin inactivation (thrombin): up to 2000 -fold
Compound: heparin
release of platelets (platelets): enhances the release of platelets
angiogenesis (angiogenesis): inhibits angiogenesis
prolongation of partial thromboplastin time or release of plasma lipase activity (colon of a baboon, without bile salt): not apparent
activity (partial thromboplastin time / plasma lipase) (with sodium cholate or deoxycholate in the formulation): significant activity was detected
delayed-type hypersensitivity [2]: suppresses
proliferation of renal mesengial cells (renal mesengial cells): inhibits the proliferation
proliferation of vascular smooth muscle cells [3]: inhibits the proliferation
proportion of heparin having high affinity for AT III [4]: Approximately 33%

Compound: C[C@H](CCC(=O)O)[C@H]1CC[C@H]2[C@@H]3[C@H](O)C[C@@H]4C[C@H](O)CC[C@]4(C)[C@H]3C[C@H](O)[C@]12C [cholate]
order of effectiveness as enhancer of insulin absorption [1]: deoxycholate<chenodeoxycholate<cholate<ursodeoxycholate
